According to paper PMC12748989 (Nature Communications, 2025):
Ends that are not written are not given here.

Tests used:
MCF10A cells = settings: 24 h
MCF7 cells = settings: 24 h
TamR3 cells = settings: 24 h
PBMC = settings: 12.5 µM

Row | Compound | IC50 (MCF10A cells) | IC50 (MCF7 cells) | IC50 (TamR3 cells) | Average (percentage cell inhibition), Dmastoparan MDA-MB231 12.5uM (MDA-MB-231 cells) | Average (percentage cell inhibition), Mastoparan PBMC (PBMC)
1 | CC[C@H](C)[C@H](N)C(=O)N[C@@H](CC(N)=O)C(=O)N[C@@H](CC(C)C)C(=O)N[C@@H](CCCCN)C(=O)N[C@@H](C)C(=O)N[C@@H](CC(C)C)C(=O)N[C@@H](C)C(=O)N[C@@H](C)C(=O)N[C@@H](CC(C)C)C(=O)N[C@@H](C)C(=O)N[C@@H](CCCCN)C(=O)N[C@@H](CCCCN)C(=O)N[C@H](C(=O)N[C@@H](CC(C)C)C(N)=O)[C@@H](C)CC [Mastoparan, reference compound] | 16.9 µM | 21.8 µM | 18.4 µM |  | 
2 | CC[C@H](C)[C@H](N)C(=O)N[C@@H](CC(N)=O)C(=O)N[C@@H](CC(C)C)C(=O)N[C@@H](CCCCN)C(=O)N[C@@H](C)C(=O)N[C@@H](CC(C)C)C(=O)N[C@@H](C)C(=O)N[C@@H](C)C(=O)N[C@@H](CC(C)C)C(=O)N[C@@H](C)C(=O)N[C@@H](CCCCN)C(=O)N[C@@H](CCCCN)C(=O)N[C@H](C(=O)N[C@@H](Cc1ccc(O)cc1)C(N)=O)[C@@H](C)CC [Y14] |  |  |  | 29.2623% | -0.4376%
3 | H-INLKALAALAKKLL-NH2 [L13] |  |  |  | 83.7429% | 38.8767%
4 | IILKKLLDFILK-NH2 [peptide 29] | 16.8 µM | 16.4 µM | 14.6 µM |  | 
5 | LLQWLLKRLKAK-NH2 [peptide 11] | 16 µM | 11.5 µM | 11.4 µM |  | 
6 | TLLTAIVKLFLK-NH2 [peptide 57] | 14.9 µM | 25 µM | 18.1 µM |  | 
